Source: PMC6556873, “Rapid Covalent-Probe Discovery by Electrophile-Fragment Screening” (Journal of the American Chemical Society, 2019)
Like-named read-outs stand apart in the source and are kept apart here.

Key:
in vitro [1] = experiment: in vitro; parameters: species or system HB2, CCD841; conditions: human, hek293 cells
in vitro [2] = experiment: in vitro; parameters: species or system CCD841, HEK293; conditions: human, hb2 cells, read-out: HB-2 Cells Viability (%)
in vitro [3] = experiment: in vitro; parameters: species or system HB2, HEK293; conditions: human, ccd841 cells
PCAF = target: T1, PCAF (Homo sapiens, UniProt Q92831); parameters: Intact protein LC/MS covalent labelling, fragments in pools of five, 200 uM each, 4 °C; conditions: 24 h, 4 °C, pool of five; 200 µM; covalent
T1 construct: gene KAT2B
Description: (§1) Incubations were performed at 200 μM for each compound and 2 μM of protein (10 μM for BSA) for 24 h at 4 °C with moderate shaking. Incubation buffers varied among proteins (PBS pH 7.4 for QSOX1 and BSA; 10 mM HEPES pH 7.5, 0.3 M NaCl, 0.5 mM TCEP for PCAF, UPS8, and NUDT7; […]; 10 mM Na2HPO4 pH 7.5 100 mM NaCl 5 mM β-mercaptoethanol for NV3CP; 20 mM Na phosphate pH 7.5 for NNMT; […]. The reaction was stopped by quenching with formic acid, 0.4% final concentration. Each protein was incubated with the electrophilic library in pools of five compounds per well. The pool’s composition maximized the difference in mass between fragments in the same well. Incubations were performed with each fragment at 200 μM, for 24 h at 4 °C, to allow the screening of proteins that are not stable for long time periods at higher temperatures. Following incubation, we used intact protein [compound left out] chromatography/mass spectrometry (LC/MS) to identify the fragments and quantify their labeling (Figure 3A). […] There was good agreement between the percent of labeling of NUDT7 by 100 random individual compounds and that obtained in pools of five (R^2=0.78; Figure S6 and Data set 2 in the Supporting Information).

NUDT7 = target: T2, NUDT7 (Homo sapiens, UniProt P0C024); parameters: Intact protein LC/MS covalent labelling, fragments in pools of five, 200 uM each, 4 °C; conditions: 24 h, 4 °C, pool of five; 200 µM; covalent
T2 construct: residues 14-235, E. coli, pNIC28-Bsa4, N-terminal His6 tag removed by TEV, construct 26672 Da
Description: as §1

BSA = target: T3, BSA (Bos taurus, UniProt P02769); parameters: Intact protein LC/MS covalent labelling, fragments in pools of five, 200 uM each, 4 °C; conditions: 24 h, 4 °C, pool of five; 200 µM; covalent
T3 construct: gene ALB
Description: as §1

OTUB2 (OTUB2A) = target: T4, OTUB2 (OTUB2A) (Homo sapiens, UniProt Q96DC9); parameters: Intact protein LC/MS covalent labelling, fragments in pools of five, 200 uM each, 4 °C; conditions: 24 h, 4 °C, pool of five; 200 µM; covalent
T4 construct: full length residues 1-234, E. coli BL21(DE3)-R3, His tag removed by TEV, construct 27312 Da
T4 sequence (Q96DC9 1-234): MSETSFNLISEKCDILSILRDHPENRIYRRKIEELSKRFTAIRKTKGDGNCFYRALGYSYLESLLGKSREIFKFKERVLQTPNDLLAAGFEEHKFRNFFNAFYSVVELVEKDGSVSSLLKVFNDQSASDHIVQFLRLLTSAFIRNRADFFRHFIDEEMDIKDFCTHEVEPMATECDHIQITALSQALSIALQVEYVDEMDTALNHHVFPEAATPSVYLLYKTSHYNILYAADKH
Description: as §1

T3 sequence (P02769 whole entry, the tested form may be a part): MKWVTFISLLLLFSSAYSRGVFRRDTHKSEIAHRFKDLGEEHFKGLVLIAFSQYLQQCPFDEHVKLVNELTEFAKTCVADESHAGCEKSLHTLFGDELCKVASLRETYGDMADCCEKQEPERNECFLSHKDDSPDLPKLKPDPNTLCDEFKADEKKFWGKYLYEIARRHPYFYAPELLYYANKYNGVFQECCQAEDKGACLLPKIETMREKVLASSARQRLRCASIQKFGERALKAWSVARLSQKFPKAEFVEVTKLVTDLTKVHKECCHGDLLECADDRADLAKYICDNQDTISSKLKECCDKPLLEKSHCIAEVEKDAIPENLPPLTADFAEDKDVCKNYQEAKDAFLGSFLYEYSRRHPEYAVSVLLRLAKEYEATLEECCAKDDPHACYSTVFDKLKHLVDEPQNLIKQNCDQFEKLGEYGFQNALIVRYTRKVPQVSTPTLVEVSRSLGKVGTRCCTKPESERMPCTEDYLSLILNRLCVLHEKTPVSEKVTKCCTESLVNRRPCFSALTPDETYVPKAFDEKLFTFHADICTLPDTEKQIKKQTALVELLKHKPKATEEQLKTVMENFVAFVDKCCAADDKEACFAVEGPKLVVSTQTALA
T1 sequence (Q92831 whole entry, the tested form may be a part): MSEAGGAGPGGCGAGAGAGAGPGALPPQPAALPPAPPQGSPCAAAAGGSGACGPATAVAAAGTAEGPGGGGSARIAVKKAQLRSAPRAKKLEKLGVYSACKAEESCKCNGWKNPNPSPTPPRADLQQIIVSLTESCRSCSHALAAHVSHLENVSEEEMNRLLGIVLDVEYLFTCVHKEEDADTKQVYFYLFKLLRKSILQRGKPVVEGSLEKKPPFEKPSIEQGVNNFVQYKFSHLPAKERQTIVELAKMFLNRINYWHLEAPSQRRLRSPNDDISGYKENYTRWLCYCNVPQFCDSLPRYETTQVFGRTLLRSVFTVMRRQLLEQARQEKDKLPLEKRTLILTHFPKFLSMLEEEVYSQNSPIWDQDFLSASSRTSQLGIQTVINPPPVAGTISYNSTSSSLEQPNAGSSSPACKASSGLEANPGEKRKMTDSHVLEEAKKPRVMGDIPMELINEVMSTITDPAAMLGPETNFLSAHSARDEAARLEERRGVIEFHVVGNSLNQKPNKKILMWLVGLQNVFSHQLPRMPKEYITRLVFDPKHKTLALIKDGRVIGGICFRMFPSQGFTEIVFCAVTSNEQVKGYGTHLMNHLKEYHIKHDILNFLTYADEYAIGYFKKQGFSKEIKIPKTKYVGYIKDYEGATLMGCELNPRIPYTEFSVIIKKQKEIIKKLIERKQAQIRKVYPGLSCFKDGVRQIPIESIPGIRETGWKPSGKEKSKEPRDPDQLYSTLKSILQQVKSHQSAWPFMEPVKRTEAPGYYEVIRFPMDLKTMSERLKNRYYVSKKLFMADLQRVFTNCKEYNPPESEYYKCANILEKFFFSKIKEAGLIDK
T2 sequence (P0C024 14-235): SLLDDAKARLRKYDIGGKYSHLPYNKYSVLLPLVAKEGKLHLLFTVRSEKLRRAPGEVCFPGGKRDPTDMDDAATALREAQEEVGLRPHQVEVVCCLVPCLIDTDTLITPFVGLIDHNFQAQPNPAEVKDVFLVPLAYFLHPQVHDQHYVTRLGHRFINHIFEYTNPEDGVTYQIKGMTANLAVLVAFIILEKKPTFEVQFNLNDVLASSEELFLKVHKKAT

Compound | viability at 48 h, 10 µM (in vitro [1]) | viability at 48 h, 10 µM (in vitro [2]) | viability at 48 h, 10 µM (in vitro [3]) | PCAF (PCAF) | NUDT7 (NUDT7) | BSA (BSA) | OTUB2 (OTUB2 (OTUB2A))
CN(C)C(=O)c1cccc(NC(=O)CCl)c1 [PCM-0102345] | 13.8% | 52.9% | 61.4% | 0 | 0.1 | 0 | 0
C=CC(=O)NCC1CCOC2(CCC2)C1 (stereo not shown) [PCM-0102523] | 90.4% | 102% | 117% | 0 | 0 | 0 | 0
C=CC(=O)N1Cc2c(OC)ccc(OC)c2C(O)C1 (stereo not shown) [PCM-0102680] | 119% | 104% | 135% | 0 | 0 | 0.1 | 0.08
CN(C(=O)CCl)c1nccs1 [PCM-0102975] | 97% | 99.8% | 118% | 0 | 0 | 0 | 0
CN(CC(F)(F)F)C(=O)CCl [PCM-0102674] | 101% | 101% | 105% | 0 | 0.11 | 0 | 0
CC(C)(C)OC(=O)CNC(=O)CCl [PCM-0102981] | 106% | 106% | 109% | 0 | 0 | 0.18 | 0
O=C(CCl)NCc1ccc(Cl)s1 [PCM-0103080] | 73% | 79.6% | 61.2% | 0 | 0 | 0 | 0.79
O=C(CCl)Nc1ccc(Br)cc1F [PCM-0102926] | 32.5% | 50.9% | 59.9% | 0 | 0.17 | 0 | 0.2
C=CC(=O)N1CCC(n2cc(C)cn2)CC1 [PCM-0102423] | 92.5% | 104% | 108% | 0 | 0 | 0 | 0.09
O=C(CCl)N1CCCC2CCCCC21 (stereo not shown) [PCM-0102826] | 27.9% | 33.7% | 32.5% | 0 | 0.07 | 0 | 0
O=C(CCl)Nc1ccc(F)c(Cl)c1 [PCM-0102217] | 1.1% | 2.5% | 18.8% | 0 | 0 | 0.13 | 0.14
CN(C)S(=O)(=O)c1ccc2c(c1)CCCN2C(=O)CCl [PCM-0102285] | 2.2% | 21.6% | 53.5% | 0 | 0 | 0 | 0
CC1CCCN(C(=O)C2CCN(C(=O)CCl)CC2)C1 (stereo not shown) [PCM-0102933] | 57.9% | 92.6% | 80.1% | 0 | 0 | 0 | 0
CC(NC(=O)CCl)c1ccccc1Cl (stereo not shown) [PCM-0102110] | 65.7% | 70.8% | 74.2% | 0 | 0 | 0 | 0.25
Cc1cc(NC(=O)CCl)n(C(C)(C)C)n1 [PCM-0103057] | 58.6% | 76.3% | 61.7% | 0 | 0 | 0 | 0
C=CC(=O)NCC1C2Cc3ccccc3C12 (stereo not shown) [PCM-0102769] | 79.1% | 94.3% | 97.5% | 0 | 0 | 0 | 0.21
C=CC(=O)Nc1sc2c(c1C#N)CCCC2 [PCM-0102455] | 81.4% | 64.1% | 72.5% | 0 | 1 | 0 | 0
Cc1cc(NC(=O)CCl)on1 [PCM-0102197] | 68.5% | 74.3% | 87.9% | 0 | 0 | 0 | 0
CN(C)c1ccc(Cl)cc1NC(=O)CCl [PCM-0102840] | 63.2% | 29.2% | 85.9% | 0.23 | 0.14 | 0 | 0.06
O=C(CCl)NNC(=O)c1cc2c(s1)CCCC2 [PCM-0102142] | 52.6% | 49% | 62.6% | 0 | 0.09 | 0 | 1
Cc1c(C#N)c(NC(=O)CCl)n(-c2ccc(F)cc2)c1C [PCM-0102099] | 11.6% | 33.6% | 53.9% | 0 | 0.17 | 0 | 0
C=CC(=O)NCc1snnc1C [PCM-0103079] | 97% | 104% | 102% | 0 | 0 | 0 | 0
